{
  "source": "ChEMBL document CHEMBL5120860",
  "about": "“Ansellone J, a Potent in Vitro and ex Vivo HIV-1 Latency Reversal Agent Isolated from a Phorbas sp. Marine Sponge” (J Nat Prod, 2022)",
  "key": {"[1]": {"system": "Human immunodeficiency virus 1", "test": "Reversal of HIV-1 latency infected in GFP-fused human J-Lat 9.2 cells assessed as increase in GFP expression at 10 uM incubated for 24 hrs by flow cytometry analysis relative to control", "assay_type": "functional"}, "[2]": {"test": "Inhibition of HIV-1 latency reversal in GFP-fused human J-lat 9.2 cells at 3 uM incubated for 24 hrs in presence of pan-PKC inhibitor Go 6983 by flow cytometry analysis relative to control", "assay_type": "functional", "settings": "Human immunodeficiency virus 1, J-Lat 9.2"}, "[3]": {"test": "Inhibition of HIV-1 latency reversal in GFP-fused human J-lat 9.2 cells at 10 uM incubated for 24 hrs in presence of pan-PKC inhibitor Go 6983 by flow cytometry analysis relative to control", "assay_type": "functional", "settings": "Human immunodeficiency virus 1, J-Lat 9.2"}, "[4]": {"system": "Human immunodeficiency virus 1", "test": "Reversal of HIV-1 latency infected in GFP-fused human J-Lat 9.2 cells assessed as increase in GFP expression at 30 uM incubated for 24 hrs by flow cytometry analysis relative to control", "assay_type": "functional"}, "[5]": {"system": "Human immunodeficiency virus 1", "test": "Reversal of HIV-1 latency in human CD4+ T cells derived from cARC-suppressed donors with HIV assessed as increase in viral RNA copies measured per ml of supernatant at 1 uM incubated for 24 hrs by qRT-PCR analysis (reference value: 191 +/- 321)", "assay_type": "functional, CD4+ve Th"}, "[6]": {"system": "Human immunodeficiency virus 1", "test": "Reversal of HIV-1 latency infected in GFP-fused human J-Lat 9.2 cells assessed as increase in GFP expression at 3 uM incubated for 24 hrs by flow cytometry analysis relative to control", "assay_type": "functional"}, "[7]": {"test": "Inhibition of HIV-1 latency reversal in GFP-fused human J-lat 9.2 cells at 1 uM incubated for 24 hrs in presence of pan-PKC inhibitor Go 6983 by flow cytometry analysis relative to control", "assay_type": "functional", "settings": "Human immunodeficiency virus 1, J-Lat 9.2"}, "[8]": {"test": "Cytotoxicity against human CD4+ T cells derived from cARC-suppressed donors with HIV assessed as cell viability at 1 uM incubated for 24 hrs by trypan blue staining based analysis relative to control", "assay_type": "toxicity, CD4+ve Th", "settings": "primary CD4+ T cells from cART-suppressed donors with HIV, read-out: Activity"}, "[9]": {"system": "Human immunodeficiency virus 1", "test": "Reversal of HIV-1 latency in human CD4+ T cells derived from cARC-suppressed donors with HIV assessed as fold increase in viral RNA copies measured per ml of supernatant at 1 uM incubated for 24 hrs by qRT-PCR analysis", "assay_type": "functional, CD4+ve Th"}, "[10]": {"system": "Human immunodeficiency virus 1", "test": "Reversal of HIV-1 latency in human CD4+ T cells derived from cARC-suppressed donors with HIV assessed as fold increase in viral RNA copies measured per ml of supernatant at 10 uM incubated for 24 hrs by qRT-PCR analysis", "assay_type": "functional, CD4+ve Th"}, "[11]": {"system": "Human immunodeficiency virus 1", "test": "Reversal of HIV-1 latency in human CD4+ T cells derived from cARC-suppressed donors with HIV assessed as increase in viral RNA copies measured per ml of supernatant at 10 uM incubated for 24 hrs by qRT-PCR analysis (reference value: 191 +/- 321)", "assay_type": "functional, CD4+ve Th"}, "[12]": {"test": "Cytotoxicity against human CD4+ T cells derived from cARC-suppressed donors with HIV assessed as cell viability at 10 uM incubated for 24 hrs by trypan blue staining based analysis relative to control", "assay_type": "toxicity, CD4+ve Th", "settings": "primary CD4+ T cells from cART-suppressed donors with HIV, read-out: Activity"}},
  "data": [
    {"smiles": "CC(=O)O[C@H]1C[C@]2(C)c3cc(C)c(O)cc3C(C)=CC(=O)[C@@H]2[C@@]2(C)CCCC(C)(C)[C@H]12", "values": [
      {"measurement": "Activity", "setting": "[1]", "result": 36.8, "unit": "%"},
      {"measurement": "inhibition at 3 µM", "setting": "[2]", "result": "> 95", "unit": "%"}
    ]},
    {"smiles": "CC(=O)O[C@]1(C)C[C@@H](/C=C(\\C)CCC=C(C)C)O[C@@]2(C=C(CO)[C@H]3CC(=O)C(C)=C[C@H]3O2)C1", "values": [
      {"measurement": "inhibition at 10 µM", "setting": "[3]", "result": "> 90", "unit": "%"},
      {"measurement": "Activity", "setting": "[4]", "result": 26.2, "unit": "%"}
    ]},
    {"smiles": "CC1=C[C@H]2O[C@@H]([C@@H]3[C@@]4(C)CCCC(C)(C)[C@@H]4C=C[C@@]3(C)O)C=C(CO)[C@H]2CC1=O", "values": [
      {"measurement": "Activity", "setting": "[5]", "result": 519},
      {"measurement": "Activity", "setting": "[6]", "result": 27.3, "unit": "%"},
      {"measurement": "inhibition at 1 µM", "setting": "[7]", "result": "> 95", "unit": "%"},
      {"measurement": "viability at 24 h, 1 µM", "setting": "[8]", "result": 82.4, "unit": "%"},
      {"measurement": "fold change (FC)", "setting": "[9]", "result": 2.7}
    ]},
    {"smiles": "CC(=O)O[C@@]12C[C@@H](C)[C@@]3(O)[C@@H](C=C(CO)C[C@]4(O)C(=O)C(C)=C[C@@H]34)[C@@H]1C2(C)C", "note": "[PROSTRATIN]", "values": [
      {"measurement": "inhibition at 10 µM", "setting": "[3]", "result": "> 90", "unit": "%"},
      {"measurement": "Activity", "setting": "[4]", "result": 11.7, "unit": "%"},
      {"measurement": "fold change (FC)", "setting": "[10]", "result": 2.8},
      {"measurement": "Activity", "setting": "[11]", "result": 685},
      {"measurement": "Activity", "setting": "[1]", "result": 11.1, "unit": "%"},
      {"measurement": "viability at 24 h, 10 µM", "setting": "[12]", "result": 84, "unit": "%"}
    ]}
  ]
}
